Results from patent US11110158B2, “Prostate-associated antigens and vaccine-based immunotherapy regimens” (Pfizer Inc., priority 2012, dated 2021).

System: human PSMA
Assay: IFNγ ELISPOT, breaking of immune tolerance in human PSMA transgenic mice
Format: in vivo, mouse
Description: Eight-to-10 week-old transgenic mice were immunized using PMED method with various PSMA DNA constructs in a prime/boost/boost regimen, two weeks apart between each vaccination. Alternatively, mice were primed with adenovirus vectors encoding the PSMA antigen at 1×10^9 viral particles in 50 μl (PBS) by intramuscular injection. The adenovirus vector (pShuttle-CMV vector from Stratagene) was modified to contain NheI and BgIII restriction sites within the multiple cloning site. The DNA encoding human PSMA modified was then restriction digested with NheI and BgIII, ligated into this vector and sequence confirmed. The pShuttle human PSMA modified vector was then recombined with the pAdEasy-1 vector and virus was propagated according to the AdEasy system (Stratagene). Twenty-days later, they were boosted with PMED as described above. In each of the regimens used, antigen specific T cell response was measured 7 days after the last immunization in an interferon-gamma (IFNγ) ELISPOT assay. The ELISPOT assay is similar to the sandwich enzyme-linked immunosorbent assay (ELISA). Briefly, a capture antibody specific to IFNγ BD Bioscience, #51-2525kc) is coated onto a polyvinylidene fluoride (PVDF) membrane in a microplate overnight at 4° C. The plate is blocked with serum/protein to prevent nonspecific binding to the antibody. […]

PSMA modified: membrane-bound polypeptide of amino acids 15-750 of human PSMA, SEQ ID NO: 9; tested as DNA construct
# of positive (Table 12, human PSMA transgenic mice with SFC>50 / mice tested): 2/10 | PSMA transgenic mice able to mount a T cell response to human PSMA (human PSMA transgenic mice, SFC>50 positive): 20%
